Assay results taken from US6613308B2, “Pulmonary delivery in treating disorders of the central nervous system” (Advanced Inhalation Research, Inc., priority 2000, dated 2003).

Columns and labels:
PZT-induced seizures = test: PZT-induced seizures; type: in vivo, rats; details: for Duration of Seizure / Minutes to Seizure Onset: mean
Method: The pharmacodynamic effects of a pulmonary versus oral benzodiazepine-type drug, alprazolam, were evaluated using a standard pre-clinical test of anxiolytic drug action. In this test, the chemical convulsant pentylenetetrazol (PZT), which is known to produce well characterized seizures in rodents, was administered to rats. The test was selected based on its sensitivity to a wide range of benzodiazapines and to the fact that the relative potency of benzodiazapines in blocking PZT-induced seizures is believed to be similar to the magnitude of their anti-anxiety effects in humans. The ability of alprazolam to block PZT-induced seizures was used as a measure of the pharmacodynamic effects of alprazolm.
Determinations of the […] activity of alprazolam were made following oral gavage, or insufflation directly into the lungs of rats. Alprazolam (Sigma, St. Louis, Mo. was administered via aerodynamically light particles which included 10% alprazolam, 20% sodium citrate, 10% calcium chloride and 60% DPPC. For oral delivery, alprazolam was suspended in light corn syrup and administered via gavage. For pulmonary delivery, an insufflation technique was used. Animals were briefly anesthetized with isoflurane (1-2%) and a laryngoscope was used to visualize the epiglottis and the blunt-tip insufflation device (PennCentury Insufflation powder delivery device) was inserted into the airway. A bolus of air (3 cc), from an attached syringe, was used to deliver the pre-loaded powder from the chamber of the device into the animals' lungs. The doses for pulmonary delivery were 0 (blank particles that included 20% sodium citrate, 10% calcium chloride and 70% DPPC), 0.088, 0.175, or 0.35 mgs total alprazolam, and the doses for oral delivery were 0, 0.088, 0.175, 0.35, 0.70, 1.75, or 3.50 mgs total alprazolam. These doses were chosen to encompass the range of effective and ineffective oral doses. Accordingly, any potential benefits of pulmonary delivery could be directly compared to the oral dose response curve for alprazolam.
For both oral and pulmonary delivery, alprazolam was administered either 10 or 30 minutes prior to PZT, obtained from Sigma, St. Louis, Mo., (60 mg/kg given i.p). To control for potential interactions between alprazolam and isoflurane, all animals receiving oral alprazolam also received isoflurane immediately following dosing as described above. For all animals, the number of seizures as well as the time to seizure onset and seizure duration was recorded for 45 minutes after administration of PZT.

[1] = 14C levels in plasma, brain and peripheral organs after 14C-carboplatin IV or pulmonary administration; type: in vivo, rat; details: 10 minutes; for Plasma Levels of 14C: 100 μCi/8 mg
Method: Blood, brain and peripheral organ levels of ^14C were determined following administration of ^14C-Carboplatin via either IV or pulmonary administration. A total of 100 μCi of radiolabeled carboplatin was mixed with unlabelled carboplatin to provide a total drug concentration of 8 mg/rat. All animals were anesthetized using ketamine. For IV administration, carboplatin was administered via a previously placed femoral cannula. For pulmonary administration, a 24 gauge catheter was placed within the trachea and the carboplatin was administered using a Harvard ventilator over a 3-5 second period using a tidal volume of 1 ml and 100 strokes/minutes. Blood samples were taken at 10 minutes post drug administration (N=6 per time point for each group). Brains were removed and dissected into various regions including the olfactory, frontal, and occipital cortices, the hippocampus, striatum, and cerebellum. Peripheral organs included the kidneys, spleen, heart, testes, and muscle. All samples were then processed for determinations of ^14C levels using scintillation.
Absolute plasma levels of ^14C were higher following IV administration. […] This point is clearer when the ratio of brain to blood ^14C levels was calculated. […] Absolute levels of ^14C in peripheral tissue was also lower following pulmonary administration (92% lower relative to IV). In contrast to the large differences in selectivity seen in the brain, the relative peripheral selectivity (derived from dividing the levels of radioactivity in peripheral organs by that in the blood) was only 47% higher in the pulmonary group.

[2] = oral, 10 minutes prior to PZT, 0.35 mgs
[3] = oral, 10 minutes prior to PZT, 0.70 mgs
[4] = oral, 10 minutes prior to PZT, 1.75 mgs
[5] = oral, 10 minutes prior to PZT, 3.50 mgs
[6] = oral, 30 minutes prior to PZT, 0.088 mgs
[7] = oral, 30 minutes prior to PZT, 0.175 mgs
[8] = oral, 30 minutes prior to PZT, 0.35 mgs
[9] = pulmonary, 10 minutes prior to PZT, 0.088 mgs
[10] = pulmonary, 10 minutes prior to PZT, 0.175 mgs
[11] = pulmonary, 10 minutes prior to PZT, 0.35 mgs
[12] = pulmonary, 10 minutes prior to PZT, 0.35 mgs, listed as alprazolam
[13] = pulmonary, 30 minutes prior to PZT, 0.088 mgs
[14] = pulmonary, 30 minutes prior to PZT, 0.175 mgs
[15] = pulmonary, 30 minutes prior to PZT, 0.35 mgs

## Cc1nnc2n1-c1ccc(Cl)cc1C(c1ccccc1)=NC2 [Alprazolam, alprazolam]
PZT-induced seizures; 10 minutes prior to PZT, 0.088 vs 3.50 mgs
  pulmonary dose lower than maximally effective oral dose for comparable decrease in seizure duration: ~40 fold
PZT-induced seizures; 10 minutes prior to PZT, 0.35 vs 3.50 mgs
  oral dose relative to pulmonary dose for comparable time to seizure onset: 10 times
PZT-induced seizures; 10 minutes prior to PZT, 3.50 vs 0.35 mgs
  oral dose required relative to pulmonary dose for comparable seizure suppression: approximately 10 times
PZT-induced seizures; oral, 10 minutes prior to PZT
  lowest oral dose that significantly increases time to seizure onset: 1.75 mgs
  maximally effective oral dose on seizure duration: 3.50 mgs
PZT-induced seizures; [2]
  Animals With Seizures: 13/15
  Animals With Seizures (%): (87%)
  Duration of Seizure: 88.0 s
  Minutes to Seizure Onset: 11.49 min
PZT-induced seizures; [3]
  Animals With Seizures: 13/15
  Animals With Seizures (%): (87%)
  Duration of Seizure: 62.07 s
  Minutes to Seizure Onset: 9.24 min
PZT-induced seizures; [4]
  Animals With Seizures: 7/15
  Animals With Seizures (%): (47%)
  Duration of Seizure: 14.47 s
  Minutes to Seizure Onset: 29.03 min
PZT-induced seizures; [5]
  Animals With Seizures: 2/14
  Animals With Seizures (%): (14%)
  Duration of Seizure: 5.40 s
  Minutes to Seizure Onset: 43.37 min
PZT-induced seizures; [6]
  Animals With Seizures: 11/15
  Animals With Seizures (%): (73%)
  Duration of Seizure: 46.0 s
  Minutes to Seizure Onset: 18.38 min
PZT-induced seizures; [7]
  Animals With Seizures: 7/15
  Animals With Seizures (%): (47%)
  Duration of Seizure: 15.0 s
  Minutes to Seizure Onset: 33.10 min
PZT-induced seizures; [8]
  Animals With Seizures: 4/15
  Animals With Seizures (%): (27%)
  Duration of Seizure: 19.0 s
  Minutes to Seizure Onset: 37.58 min
PZT-induced seizures; oral, 30 minutes prior to PZT, 0.35 mgs, listed as alprazolam
  Animals With Seizures (%): 27%
PZT-induced seizures; [9]
  Animals With Seizures: 5/15
  Animals With Seizures (%): (33%)
  Duration of Seizure: 7.0 s
  Minutes to Seizure Onset: 36.71 min
PZT-induced seizures; pulmonary, 10 minutes prior to PZT, 0.088 mgs, listed as alprazolam
  Animals With Seizures (%): 33%
PZT-induced seizures; [10]
  Animals With Seizures: 3/15
  Animals With Seizures (%): (20%)
  Duration of Seizure: 8.0 s
  Minutes to Seizure Onset: 38.61 min
PZT-induced seizures; [11]
  Animals With Seizures: 2/15
  Animals With Seizures (%): (13%)
  Duration of Seizure: 4.0 s
  Minutes to Seizure Onset: 42.28 min
PZT-induced seizures; [12]
  Animals With Seizures (%): 13%
  Minutes to Seizure Onset: > 42 min
PZT-induced seizures; [13]
  Animals With Seizures: 9/15
  Animals With Seizures (%): (60%)
  Duration of Seizure: 82.67 s
  Minutes to Seizure Onset: 18.47 min
PZT-induced seizures; [14]
  Animals With Seizures: 5/15
  Animals With Seizures (%): (33%)
  Duration of Seizure: 16.07 s
  Minutes to Seizure Onset: 34.05 min
PZT-induced seizures; [15]
  Animals With Seizures: 2/15
  Animals With Seizures (%): (13%)
  Duration of Seizure: 2.69 s
  Minutes to Seizure Onset: 41.98 min

## N.N.O=C([O-])C1(C(=O)[O-])CCC1.[Pt+2] [carboplatin]
[1]; IV
  Absolute Brain Levels: 29.47 nCi/gram
  Absolute Tissue Levels (Peripheral Organs), excludes kidney: 0.03
  Relative Brain Selectivity (Brain/Blood): 0.03
  Relative Peripheral Selectivity (Peripheral/Blood), excludes kidney: 0.44
  Plasma Levels of 14C: 994.348
[1]; Lung vs IV
  Absolute Tissue Levels (Peripheral Organs) (% Difference): +2833%
  Plasma Levels (% Difference): −89.72%
[1]; Lung
  Absolute Brain Levels: 27.29 nCi/gram
  Absolute Tissue Levels (Peripheral Organs), excludes kidney: 0.88
  Relative Brain Selectivity (Brain/Blood): 0.88
  Relative Peripheral Selectivity (Peripheral/Blood), excludes kidney: 0.65
  Plasma Levels of 14C: 102.215
[1]; pulmonary vs IV
  Absolute levels of 14C in peripheral tissue, lower relative to IV: 92%
